Like-named read-outs stand apart in the source and are kept apart here.
Tested on: wild‐type BCG cells
Assay type: cell-based, M. bovis BCG
Settings: for Mean_Ratio (GDI5755_3d vs DMSO_3d): down-regulated, 3 d; for Mean Ratio: GDI5755_2d vs DMSO_2d; for Mean Ratio / Mean Ratio (GDI5755_2d vs DMSO_2d): up-regulated; for Mean Ratio (GDI5755_2d vs DMSO_2d): 2d

What does the source list for O=C(Oc1ccc(Cl)cc1)c1ccc(N2CCOCC2)c([N+](=O)[O-])c1 [GDI‐5755]?
Mean_Ratio (GDI5755_3d vs DMSO_3d) (protein A0A0H3M2P5, BCG_0207 (Rv0170), MCE-family protein mce1B): 0.7; Mean Ratio (protein A0A0H3M2Q0 Probable conserved mce associated membrane protein): 1.29; Mean Ratio (protein A0A0H3M2Q5 Probable conserved transmembrane protein): 1.31; Mean Ratio (GDI5755_2d vs DMSO_2d) (protein A0A0H3M2T8 Possible conserved membrane protein mmpS5): 1.38; Mean Ratio (protein A0A0H3M3A7 3-hydroxyacyl-CoA dehydrogenase): 1.27; Mean_Ratio (GDI5755_3d vs DMSO_3d) (protein A0A0H3M3B6, BCG_1227 (Rv1165), Large ribosomal subunit assembly factor BipA): 0.749; Mean_Ratio (GDI5755_3d vs DMSO_3d) (protein A0A0H3M3D2, BCG_0932 (Rv0880), Possible transcriptional regulatory protein (Possibly marR-family)): 0.738; Mean_Ratio (GDI5755_3d vs DMSO_3d) (protein A0A0H3M3H3, BCG_1314 (Rv1254), Probable acyltransferase): 0.748; Mean Ratio (protein A0A0H3M3I2 Uncharacterized protein): 1.28; Mean Ratio (protein A0A0H3M3J3 Probable periplasmic oligopeptide-binding lipoprotein oppA): 1.27; Mean Ratio (GDI5755_2d vs DMSO_2d) (protein A0A0H3M3L0 Conserved hypothetical transmembrane protein): 1.38; Mean Ratio (protein A0A0H3M3S8 Lipoarabinomannan carrier protein LprG): 1.31; Mean Ratio (protein A0A0H3M3T4 Possible conserved membrane protein): 1.31; Mean Ratio (protein A0A0H3M3X9 Probable cation transporter P-type atpase D ctpD): 1.31; Mean_Ratio (GDI5755_3d vs DMSO_3d) (protein A0A0H3M4A0, BCG_1633 (Rv1595), L-aspartate oxidase): 0.7; Mean Ratio (GDI5755_2d vs DMSO_2d) (protein A0A0H3M4G0 Lipoprotein lprB): 1.35; Mean_Ratio (GDI5755_3d vs DMSO_3d) (protein A0A0H3M4I9, BCG_1379c (Rv1318c), Possible adenylate cyclase): 0.7; Mean_Ratio (GDI5755_3d vs DMSO_3d) (protein A0A0H3M4L2, BCG_1760c (Rv1721c), Antitoxin VapB12): 0.7; Mean Ratio (protein A0A0H3M4W6 DUF1490 family protein): 1.26; Mean_Ratio (GDI5755_3d vs DMSO_3d) (protein A0A0H3M5A9, BCG_1670c (Rv1632c), DUF402 domain-containing protein): 0.74; Mean Ratio (GDI5755_2d vs DMSO_2d) (protein A0A0H3M5C0 RNA polymerase sigma factor): 1.33; Mean_Ratio (GDI5755_3d vs DMSO_3d) (protein A0A0H3M5G5, BCG_1251, alternative RNA polymerase sigma factor sigI): 0.7; Mean Ratio (protein A0A0H3M5I2 Uncharacterized protein): 1.28; Mean Ratio (protein A0A0H3M5J1 Probable serine protease htrA): 1.26; Mean Ratio (GDI5755_2d vs DMSO_2d) (protein A0A0H3M5K5 DUF4129 domain-containing protein): 1.38; Mean_Ratio (GDI5755_3d vs DMSO_3d) (protein A0A0H3M5K7, BCG_1305c (Rv1245c), Probable short-chain type dehydrogenase/reductase): 0.7; Mean Ratio (GDI5755_2d vs DMSO_2d) (protein A0A0H3M5K8 Methylenetetrahydrofolate reductase): 1.33; Mean_Ratio (GDI5755_3d vs DMSO_3d) (protein A0A0H3M5L3, BCG_1311c (Rv1251c), Uncharacterized protein): 0.76; Mean Ratio (protein A0A0H3M5L8 1-acylglycerol-3-phosphate O-acyltransferase): 1.26; Mean Ratio (GDI5755_2d vs DMSO_2d) (protein A0A0H3M5V5 Possible flavoprotein): 1.33; Mean Ratio (GDI5755_2d vs DMSO_2d) (protein A0A0H3M5V7 Possible transmembrane protein): 1.32; Mean Ratio (protein A0A0H3M5V9 DUF3145 domain-containing protein): 1.32; Mean Ratio (GDI5755_2d vs DMSO_2d) (protein A0A0H3M6F8 Probable 'component linked with the assembly of cytochrome' transport transmembrane ATP-binding protein ABC transporter cydC): 1.33; Mean_Ratio (GDI5755_3d vs DMSO_3d) (protein A0A0H3M6P3, BCG_1740c (Rv1702c), HNH nuclease domain-containing protein): 0.759; Mean Ratio (protein A0A0H3M6T8 Uncharacterized protein): 1.25; Mean Ratio (GDI5755_2d vs DMSO_2d) (protein A0A0H3M7A1 Probable conserved membrane protein): 1.33; Mean Ratio (protein A0A0H3M7A2 (2E)-enoyl-[ACP] glycyltransferase): 1.27; Mean Ratio (protein A0A0H3M7D2 Quinone oxidoreductase): 1.25; Mean_Ratio (GDI5755_3d vs DMSO_3d) (protein A0A0H3M7E6, BCG_0206 (Rv0169), MCE-family protein mce1A): 0.7; Mean_Ratio (GDI5755_3d vs DMSO_3d) (protein A0A0H3M7F0, BCG_0211 (Rv0174), MCE-family protein mce1F): 0.7; Mean Ratio (GDI5755_2d vs DMSO_2d) (protein A0A0H3M7F7 Hemerythrin-like domain-containing protein): 1.39; Mean Ratio (protein A0A0H3M7J3 UspA domain-containing protein): 1.27; Mean Ratio (protein A0A0H3M7L3 Succinate dehydrogenase [membrane anchor subunit]): 1.25; Mean Ratio (protein A0A0H3M7L4 Possible transmembrane protein dedA): 1.29; Mean Ratio (protein A0A0H3M7L9 Probable arsenic-transport integral membrane protein arsC): 1.30; Mean Ratio (protein A0A0H3M7M0 Posible transcriptional regulatory protein): 1.27; Mean_Ratio (GDI5755_3d vs DMSO_3d) (protein A0A0H3M7M6, BCG_2876 (Rv2856), Nickel/cobalt efflux system): 0.7; Mean Ratio (protein A0A0H3M7N4 Possible secreted protease): 1.32; Mean_Ratio (GDI5755_3d vs DMSO_3d) (protein A0A0H3M7R0, BCG_0355, Possible beta-1,3-glucanase): 0.7; Mean Ratio (protein A0A0H3M7R4 Probable membrane protein): 1.30; Mean_Ratio (GDI5755_3d vs DMSO_3d) (protein A0A0H3M7T2, BCG_2131, Uncharacterized protein): 0.742; Mean_Ratio (GDI5755_3d vs DMSO_3d) (protein A0A0H3M7W0, BCG_2977 (Rv2956), Methyltransferase FkbM domain-containing protein): 0.7; Mean Ratio (protein A0A0H3M7X0 Probable conserved transmembrane protein): 1.28; Mean Ratio (protein A0A0H3M7X3 Probable conserved transmembrane protein): 1.32; Mean_Ratio (GDI5755_3d vs DMSO_3d) (protein A0A0H3M7Y1, BCG_0442 (Rv0404), Probable fatty-acid-CoA ligase fadD30): 0.7; Mean_Ratio (GDI5755_3d vs DMSO_3d) (protein A0A0H3M7Y6, BCG_2210 (Rv2194), Cytochrome bc1 complex cytochrome c subunit, qcrC): 0.747; Mean Ratio (protein A0A0H3M8J5 Protein translocase subunit SecE): 1.31; Mean Ratio (GDI5755_2d vs DMSO_2d) (protein A0A0H3M8K7 DUF4333 domain-containing protein): 1.33; Mean Ratio (protein A0A0H3M8L8 Probable FeIII-dicitrate-binding periplasmic lipoprotein fecB): 1.27; Mean Ratio (protein A0A0H3M8M0 Conserved hypothetical threonine rich protein): 1.26; Mean Ratio (protein A0A0H3M8Q9 Probable short-chain type dehydrogenase/reductase): 1.27; Mean_Ratio (GDI5755_3d vs DMSO_3d) (protein A0A0H3M8T3, BCG_3410 (Rv3340), Probable O-acetylhomoserine sulfhydrylase metC): 0.7; Mean Ratio (protein A0A0H3M8V5 Possible transcriptional regulatory protein (Probably tetR-family)): 1.29; Mean_Ratio (GDI5755_3d vs DMSO_3d) (protein A0A0H3M8X7, BCG_3431 (Rv3359), Possible oxidoreductase): 0.737; Mean Ratio (GDI5755_2d vs DMSO_2d) (protein A0A0H3M8X9 Probable oxidase): 1.33; Mean_Ratio (GDI5755_3d vs DMSO_3d) (protein A0A0H3M8Y4, BCG_3436c (Rv3364c), Roadblock/LAMTOR2 domain-containing protein/Serine protease inhibitor): 0.75
